Patent publication US20150353495A1 (PORTOLA PHARMACEUTICALS, INC., priority 2010, published 2015)

Tests used:
Assay type in all cases: biochemical
[1] = target: T1, JAK3 (Homo sapiens, UniProt P52333); test: Z'-LYTE kinase assay JAK3
T1 construct: 5 μl of catalytic domain recombinant Kinase enzyme+Tyr peptide substrate (Invitrogen, CA); purchased Invitrogen
Procedure, shortened: (§1)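 Catalytic-domain recombinant kinase was incubated with Tyr6 FRET peptide, ATP and compound (1% DMSO final) for 1 h at room temperature. Protease development followed for 1 h, cleaving only non-phosphorylated peptide. Inhibition of phosphorylation was read as coumarin/fluorescein FRET fluorescence.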

[2] = target: T2, JAK1 (Homo sapiens, UniProt P23458); test: Z'-LYTE kinase assay JAK1
T2 construct: 5 μl of catalytic domain recombinant Kinase enzyme+Tyr peptide substrate (Invitrogen, CA); purchased Invitrogen
T2 sequence (P23458 875-1153 limits assumed): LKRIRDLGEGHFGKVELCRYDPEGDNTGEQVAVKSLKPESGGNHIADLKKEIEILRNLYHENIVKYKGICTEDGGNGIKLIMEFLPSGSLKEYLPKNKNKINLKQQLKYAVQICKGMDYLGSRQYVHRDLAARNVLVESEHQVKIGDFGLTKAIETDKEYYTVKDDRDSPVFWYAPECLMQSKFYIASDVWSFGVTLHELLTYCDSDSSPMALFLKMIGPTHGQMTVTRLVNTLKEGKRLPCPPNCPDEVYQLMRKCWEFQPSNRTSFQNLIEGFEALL
Procedure, shortened: as §1

[3] = target: T3, JAK2 (Homo sapiens, UniProt O60674); test: Z'-LYTE kinase assay JAK2
T3 construct: 5 μl of catalytic domain recombinant Kinase enzyme+Tyr peptide substrate (Invitrogen, CA); purchased Invitrogen
T3 sequence (O60674 849-1124 limits assumed): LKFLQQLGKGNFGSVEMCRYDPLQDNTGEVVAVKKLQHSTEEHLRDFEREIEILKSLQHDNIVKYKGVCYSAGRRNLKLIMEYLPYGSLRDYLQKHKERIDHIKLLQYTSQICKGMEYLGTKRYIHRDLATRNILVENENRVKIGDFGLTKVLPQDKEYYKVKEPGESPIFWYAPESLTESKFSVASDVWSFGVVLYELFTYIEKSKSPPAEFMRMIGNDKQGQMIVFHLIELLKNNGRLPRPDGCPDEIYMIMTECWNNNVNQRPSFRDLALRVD
Procedure, shortened: as §1

T1 sequence (P52333 822-1111 limits assumed): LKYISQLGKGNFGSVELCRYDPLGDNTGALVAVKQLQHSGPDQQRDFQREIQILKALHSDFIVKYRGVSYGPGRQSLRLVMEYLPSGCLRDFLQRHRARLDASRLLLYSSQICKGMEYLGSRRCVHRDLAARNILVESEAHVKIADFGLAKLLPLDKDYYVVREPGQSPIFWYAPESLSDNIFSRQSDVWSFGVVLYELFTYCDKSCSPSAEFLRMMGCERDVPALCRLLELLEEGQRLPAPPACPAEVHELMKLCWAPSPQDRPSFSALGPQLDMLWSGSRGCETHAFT

SMILES	IC50 [1]	IC50 [2]	IC50 [3]
CC(=O)N1CCC[C@H](CNc2cc(Nc3ccc(C(=O)N(C)C)c(C(F)(F)F)c3)ncc2C(N)=O)C1 [Example 274, (R)-4-((1-acetylpiperidin-3-yl)methylamino)-6-(4-(dimethylcarbamoyl)-3-(trifluoromethyl)phenylamino)nicotinamide]	100 to 1000 nM	> 1000 nM	> 1000 nM
CC(=O)N1CCC[C@H](CNc2cc(Nc3ccc(C(=O)N(C)C)c(F)c3)ncc2C(N)=O)C1 [Example 275, (R)-4-((1-acetylpiperidin-3-yl)methylamino)-6-(4-(dimethylcarbamoyl)-3-fluorophenylamino)nicotinamide]	100 to 1000 nM	> 1000 nM	> 1000 nM
NC(=O)c1cnc(Nc2ccc(-c3c[nH]cn3)cc2)cc1NCc1ccccc1 [Example 276, 6-(4-(1H-imidazol-4-yl)phenylamino)-4-(benzylamino)nicotinamide]	10 to 100 nM	100 to 1000 nM	100 to 1000 nM
NC(=O)c1cnc(Nc2ccc(-n3cccn3)cc2)cc1NCc1ccccc1 [Example 277, 6-(4-(1H-pyrazol-1-yl)phenylamino)-4-(benzylamino)nicotinamide]	10 to 100 nM	> 1000 nM	> 1000 nM
NC(=O)c1cnc(Nc2ccc(-n3cccn3)nc2)cc1NCc1ccccc1 [Example 278, 6-(6-(1H-pyrazol-1-yl)pyridin-3-ylamino)-4-(benzylamino)nicotinamide]	100 to 1000 nM	> 1000 nM	> 1000 nM
COc1ccc(Nc2cc(NCc3ccccc3)c(C(N)=O)cn2)cc1C [Example 279, 4-(benzylamino)-6-(4-methoxy-3-methylphenylamino)nicotinamide]	10 to 100 nM	> 1000 nM	> 1000 nM
COc1cc(Nc2cc(NCc3ccccc3)c(C(N)=O)cn2)cc(OC)c1OC [Example 280, 4-(benzylamino)-6-(3,4,5-trimethoxyphenylamino)nicotinamide]	10 to 100 nM	> 1000 nM	100 to 1000 nM
NC(=O)c1cnc(Nc2ccc(-c3nc[nH]n3)cc2)cc1NCc1ccccc1 [Example 281, 6-(4-(1H-1,2,4-triazol-3-yl)phenylamino)-4-(benzylamino)nicotinamide]	10 to 100 nM	100 to 1000 nM	100 to 1000 nM
COc1ccc(Nc2cc(NCc3cccc4cc[nH]c34)c(C(N)=O)cn2)cc1 [Example 282, 4-((1H-indol-7-yl)methylamino)-6-(4-methoxyphenylamino)nicotinamide]	10 to 100 nM	> 1000 nM	> 1000 nM
COc1ccc(Nc2cc(NCc3cncnc3)c(C(N)=O)cn2)cc1 [Example 286, 6-(4-methoxyphenylamino)-4-(pyrimidin-5-ylmethylamino)nicotinamide]	100 to 1000 nM	> 1000 nM	> 1000 nM
Cc1cc(Nc2cc(NCc3cncnc3)c(C(N)=O)cn2)ccc1C(=O)N(C)C [Example 287, 6-(4-(dimethylcarbamoyl)-3-methylphenylamino)-4-(pyrimidin-5-ylmethylamino)nicotinamide]	100 to 1000 nM	> 1000 nM	> 1000 nM
CN(C)C(=O)c1ccc(Nc2cc(NCc3cccc4cc[nH]c34)c(C(N)=O)cn2)cc1 [Example 288, 4-((1H-indol-7-yl)methylamino)-6-(4-(dimethylcarbamoyl)phenylamino)nicotinamide]	1 to 10 nM	> 1000 nM	10 to 100 nM
CCS(=O)(=O)N1CCC[C@H](CNc2cc(Nc3ccc(OC)cc3)ncc2C(N)=O)C1 [Example 289, (R)-4-((1-(ethylsulfonyl)piperidin-3-yl)methylamino)-6-(4-methoxyphenylamino)nicotinamide]	10 to 100 nM	> 1000 nM	100 to 1000 nM
COc1ccc(Nc2cc(NC[C@H]3CCCN(C(=O)N4CCCC4)C3)c(C(N)=O)cn2)cc1 [Example 290, (R)-6-(4-methoxyphenylamino)-4-((1-(pyrrolidine-1-carbonyl)piperidin-3-yl)methylamino)nicotinamide]	100 to 1000 nM	> 1000 nM	> 1000 nM
COc1ccc(Nc2cc(NC[C@H]3CCCN(C(=O)N(C)C)C3)c(C(N)=O)cn2)cc1 [Example 291, (R)-4-((1-(dimethylcarbamoyl)piperidin-3-yl)methylamino)-6-(4-methoxyphenylamino)nicotinamide]	100 to 1000 nM	> 1000 nM	> 1000 nM
COc1ccc(Nc2cc(NC[C@H]3CCCN(S(=O)(=O)C4CC4)C3)c(C(N)=O)cn2)cc1 [Example 292, (R)-4-((1-(cyclopropylsulfonyl)piperidin-3-yl)methylamino)-6-(4-methoxyphenylamino)nicotinamide]	100 to 1000 nM	> 1000 nM	> 1000 nM
COc1ccc(Nc2cc(NCc3ccccc3)c(C(N)=O)cn2)cc1OC [Example 293, 4-(benzylamino)-6-(3,4-dimethoxyphenylamino)nicotinamide]	10 to 100 nM	100 to 1000 nM	100 to 1000 nM

SMILES	IC50 [1]	IC50 [2]	IC50 [3]
Cc1cc(Nc2cc(NCc3cccc4[nH]ccc34)c(C(N)=O)cn2)ccc1C(=O)N(C)C [Example 295, 4-((1H-indol-4-yl)methylamino)-6-(4-(dimethylcarbamoyl)-3-methylphenylamino)nicotinamide]	< 1 nM	1 to 10 nM	1 to 10 nM
COc1ccc(Nc2cc(NCc3cncc(F)c3)c(C(N)=O)cn2)cc1 [Example 296, 4-((5-fluoropyridin-3-yl)methylamino)-6-(4-methoxyphenylamino)nicotinamide]	10 to 100 nM	100 to 1000 nM	100 to 1000 nM
COc1ccc(Nc2cc(NCc3ccncn3)c(C(N)=O)cn2)cc1 [Example 298, 6-(4-methoxyphenylamino)-4-(pyrimidin-4-ylmethylamino)nicotinamide]	100 to 1000 nM	> 1000 nM	> 1000 nM
CN(C)C(=O)c1ccc(Nc2cc(NCc3ccncn3)c(C(N)=O)cn2)cc1 [Example 299, 6-(4-(dimethylcarbamoyl)phenylamino)-4-(pyrimidin-4-ylmethylamino)nicotinamide]	> 1000 nM	> 1000 nM	> 1000 nM
COc1ccc(Nc2cc(NCc3ncccn3)c(C(N)=O)cn2)cc1 [Example 300, 6-(4-methoxyphenylamino)-4-(pyrimidin-2-ylmethylamino)nicotinamide]	100 to 1000 nM	> 1000 nM	> 1000 nM
COc1ccc(Nc2cc(NCc3cccc(S(C)(=O)=O)c3)c(C(N)=O)cn2)cc1 [Example 301, 6-(4-methoxyphenylamino)-4-(3-(methylsulfonyl)benzylamino)nicotinamide]	10 to 100 nM	> 1000 nM	> 1000 nM
CN(C)C(=O)c1ccc(Nc2cc(NCc3cccc(S(C)(=O)=O)c3)c(C(N)=O)cn2)cc1 [Example 302, 6-(4-(dimethylcarbamoyl)phenylamino)-4-(3-(methylsulfonyl)benzylamino)nicotinamide]	10 to 100 nM	> 1000 nM	100 to 1000 nM
COc1ccc(Nc2cc(NCc3cccc4c3ccn4C)c(C(N)=O)cn2)cc1 [Example 303, 6-(4-methoxyphenylamino)-4-((1-methyl-1H-indol-4-yl)methylamino)nicotinamide]	10 to 100 nM	> 1000 nM	> 1000 nM
CN(C)C(=O)c1ccc(Nc2cc(NCc3cccc4c3ccn4C)c(C(N)=O)cn2)cc1 [Example 304, 6-(4-(dimethylcarbamoyl)phenylamino)-4-((1-methyl-1H-indol-4-yl)methylamino)nicotinamide]	1 to 10 nM	100 to 1000 nM	100 to 1000 nM
NC(=O)c1cnc(Nc2ccc(C(F)(F)F)cc2)cc1NCc1cncc(F)c1 [Example 305]	100 to 1000 nM	> 1000 nM	> 1000 nM
NC(=O)c1cnc(Nc2cccc(F)c2)cc1NCc1cncc(F)c1 [Example 306, 6-(3-fluorophenylamino)-4-((5-fluoropyridin-3-yl)methylamino)nicotinamide]	10 to 100 nM	100 to 1000 nM	100 to 1000 nM
NC(=O)c1cnc(Nc2cccc(Cl)c2)cc1NCc1cncc(F)c1 [Example 307, 6-(3-chlorophenylamino)-4-((5-fluoropyridin-3-yl)methylamino)nicotinamide]	10 to 100 nM	> 1000 nM	100 to 1000 nM
N#Cc1ccc(Nc2cc(NCc3cncc(F)c3)c(C(N)=O)cn2)cc1 [Example 308, 6-(4-cyanophenylamino)-4-((5-fluoropyridin-3-yl)methylamino)nicotinamide]	10 to 100 nM	> 1000 nM	> 1000 nM
NC(=O)c1cnc(Nc2ccc(OC(F)F)cc2)cc1NCc1cncc(F)c1 [Example 309, 6-(4-(difluoromethoxy)phenylamino)-4-((5-fluoropyridin-3-yl)methylamino)nicotinamide]	10 to 100 nM	> 1000 nM	100 to 1000 nM
NC(=O)c1cnc(Nc2ccc(OC(F)(F)F)cc2)cc1NCc1cncc(F)c1 [Example 310]	100 to 1000 nM	> 1000 nM	> 1000 nM
Cc1ccc(Nc2cc(NCc3cncc(F)c3)c(C(N)=O)cn2)cc1 [Example 311, 4-((5-fluoropyridin-3-yl)methylamino)-6-(p-tolylamino)nicotinamide]	10 to 100 nM	100 to 1000 nM	100 to 1000 nM
CN(C)C(=O)c1ccc(Nc2cc(NCc3cncc(F)c3)c(C(N)=O)cn2)cc1 [Example 312, 6-(4-(dimethylcarbamoyl)phenylamino)-4-((5-fluoropyridin-3-yl)methylamino)nicotinamide]	1 to 10 nM	100 to 1000 nM	100 to 1000 nM
